Test results taken from patent US12649750B2, “Macrocyclic compounds, compositions, and methods of using thereof” (Sionna Therapeutics Inc., priority 2022, dated 2026).

What was measured:
CFTR = molecular target: T1, CFTR (Homo sapiens, UniProt P13569, DEL508-508); experiment: TECC24 AUC fold over DMSO @10 μM, CFTR-mediated transepithelial chloride transport in CF-HBE cells; assay type: cell-based; settings: test agent AUC divided by DMSO vehicle AUC, primary CF-HBE cells, ΔF508 homozygous donor, 48 hours incubation
T1 construct: Primary human bronchial epithelial cells from a ΔF508 homozygous CF donor; host or cells: primary human bronchial epithelial cells (CF-HBE), ΔF508 homozygous donor
Method in brief: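 Value is ratio of test-agent to DMSO AUC of equivalent transepithelial Cl− current, integrated from forskolin (10 μM) stimulation to CFTR inhibitor-172 (20 μM) block, with benzamil 10 μM present. CF-HBE (ΔF508/ΔF508) cultures had 48 h compound exposure at 10 μM, 36.5° C before recording.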

NBD1 = molecular target: T2, NBD1 (Homo sapiens, UniProt P13569); experiment: Aggregation analysis using differential static light scattering (DSLS), thermal stability of NBD1 (ΔTagg); assay type: binding; settings: ΔTagg versus DMSO control, NBD1 0.2 mg/ml
T2 construct: Purified recombinant NBD1 was produced using previously described methods; made in house
Method in brief: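 Purified recombinant NBD1 at 0.2 mg/ml in Tris buffer pH7.6 with 2 mM ATP, 5 mM MgCl2, 2 mM DTT and 1% glycerol was mixed with DMSO-dissolved compounds under mineral oil. Plates were heated at 1° C. per minute to 70° C., light scattering imaged every 0.5° C.; Tagg from curve inflection, minus DMSO-control mean.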

T2 sequence (P13569 423-646 limits assumed): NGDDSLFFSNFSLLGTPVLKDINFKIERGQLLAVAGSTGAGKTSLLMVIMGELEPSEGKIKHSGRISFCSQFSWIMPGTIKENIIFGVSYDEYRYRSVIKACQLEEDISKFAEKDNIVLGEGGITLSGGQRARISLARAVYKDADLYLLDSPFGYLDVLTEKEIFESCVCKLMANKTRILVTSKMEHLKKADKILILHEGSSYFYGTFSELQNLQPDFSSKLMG
T1 sequence (P13569 with tags, fused parts or gaps DEL508-508): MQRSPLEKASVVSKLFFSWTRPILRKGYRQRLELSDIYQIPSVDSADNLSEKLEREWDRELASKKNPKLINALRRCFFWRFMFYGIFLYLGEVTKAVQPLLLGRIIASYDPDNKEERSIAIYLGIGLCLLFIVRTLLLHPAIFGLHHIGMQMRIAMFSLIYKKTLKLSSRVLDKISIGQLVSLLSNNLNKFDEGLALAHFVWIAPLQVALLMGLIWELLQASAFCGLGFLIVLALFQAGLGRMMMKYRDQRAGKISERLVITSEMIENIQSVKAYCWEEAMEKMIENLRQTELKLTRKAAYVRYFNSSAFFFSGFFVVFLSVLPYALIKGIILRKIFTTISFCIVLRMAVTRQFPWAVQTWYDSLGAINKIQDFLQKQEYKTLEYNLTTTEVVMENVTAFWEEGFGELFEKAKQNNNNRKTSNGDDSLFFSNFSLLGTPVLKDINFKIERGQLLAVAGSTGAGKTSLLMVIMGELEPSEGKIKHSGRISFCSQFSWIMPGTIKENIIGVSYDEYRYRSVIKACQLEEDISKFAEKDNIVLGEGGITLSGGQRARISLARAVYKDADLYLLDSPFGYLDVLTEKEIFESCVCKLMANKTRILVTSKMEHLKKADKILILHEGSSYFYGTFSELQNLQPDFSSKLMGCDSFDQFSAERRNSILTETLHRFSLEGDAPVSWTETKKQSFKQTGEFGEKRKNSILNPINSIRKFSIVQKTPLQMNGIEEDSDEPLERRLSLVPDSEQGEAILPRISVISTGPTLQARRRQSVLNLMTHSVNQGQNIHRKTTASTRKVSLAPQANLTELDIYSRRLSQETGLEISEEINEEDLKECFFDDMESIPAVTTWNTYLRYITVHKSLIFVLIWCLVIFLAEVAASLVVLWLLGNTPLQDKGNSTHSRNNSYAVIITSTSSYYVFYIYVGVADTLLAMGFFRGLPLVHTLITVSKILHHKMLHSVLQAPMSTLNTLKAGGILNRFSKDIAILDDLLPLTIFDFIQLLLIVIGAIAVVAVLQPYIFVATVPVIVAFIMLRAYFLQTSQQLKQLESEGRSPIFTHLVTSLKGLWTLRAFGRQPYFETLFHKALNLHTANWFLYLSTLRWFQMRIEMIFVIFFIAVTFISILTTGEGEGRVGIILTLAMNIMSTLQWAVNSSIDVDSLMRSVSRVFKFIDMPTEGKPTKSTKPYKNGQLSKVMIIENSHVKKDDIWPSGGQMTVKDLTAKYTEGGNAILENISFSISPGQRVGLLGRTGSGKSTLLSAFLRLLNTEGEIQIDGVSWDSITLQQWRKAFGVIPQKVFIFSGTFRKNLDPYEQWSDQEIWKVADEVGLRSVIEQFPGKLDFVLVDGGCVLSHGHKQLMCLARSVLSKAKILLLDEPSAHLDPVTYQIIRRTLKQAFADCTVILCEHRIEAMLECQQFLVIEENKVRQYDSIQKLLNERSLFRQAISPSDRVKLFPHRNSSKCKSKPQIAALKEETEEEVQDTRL

Compound | TECC (AUC, 10 μM) (CFTR) | DSLS 3D (100 μM ΔT) (NBD1)
CC(Cc1cccc(C2(CN)CCCC(C)(C)CS(=O)(=O)CCc3c(c(F)cc4[nH]ccc34)Oc3ccc(F)c(c3)-c3nc2nn3C)c1)C(=O)O (single isomer, unassigned) [Compound 136A, 3-[3-[6-(aminomethyl)-22,28-difluoro-3,10,10-trimethyl-12,12-dioxo-24-oxa-12λ6-thia-3,4,19,30-tetrazapentacyclo-[23.3.1.12,5.015,23.016,20]triaconta-1(29),2(30),4,15,17,20,22,25,27-nonaen-6-yl]phenyl]-2-methyl-propanoic Acid] | A (a TECC value less than 12 is marked “A”) | A (an ΔTagg value less than or equal to 5 °C is marked “A”)
CC(Cc1cccc(C2(CN)CCCC(C)(C)CS(=O)(=O)CCc3c(c(F)cc4[nH]ccc34)Oc3ccc(F)c(c3)-c3nc2nn3C)c1)C(=O)O (single isomer, unassigned) [Compound 136B, 3-[3-[6-(aminomethyl)-22,28-difluoro-3,10,10-trimethyl-12,12-dioxo-24-oxa-12λ6-thia-3,4,19,30-tetrazapentacyclo-[23.3.1.12,5.015,23.016,20]triaconta-1(29),2(30),4,15,17,20,22,25,27-nonaen-6-yl]phenyl]-2-methyl-propanoic Acid] | C (a value between 20 and 80 is marked “C”) | C (a value greater than 10 °C and less than or equal to 25 °C is marked “C”)
CC(Cc1cccc(C2(CNCC(F)F)CCCC(C)(C)CS(=O)(=O)CCc3c(c(F)cc4[nH]ccc34)Oc3ccc(F)c(c3)-c3nc2nn3C)c1)C(=O)O (single isomer, unassigned) [Compound 137B, 3-[3-[6-[(2,2-difluoroethylamino)methyl]-22,28-difluoro-3,10,10-trimethyl-12,12-dioxo-24-oxa-12λ6-thia-3,4,19,30-tetrazapentacyclo[23.3.1.12,5.015,23.016,20]triaconta-1(29),2(30),4,15,17,20,22,25,27-nonaen-6-yl]phenyl]-2-methyl-propanoic Acid] | A (a TECC value less than 12 is marked “A”) | B (a value above 5 °C and less than or equal to 10 °C is marked “B”)
CC(C)OC(=O)[C@@H](C)Cc1cccc(C2(C)CCCC(C)(C)CS(=O)(=O)CCc3c(c(F)cc4[nH]ccc34)Oc3ccc(F)c(c3)-c3nc2nn3C)c1 (single isomer, unassigned) [Compound 139] | C (a value between 20 and 80 is marked “C”) | B (a value above 5 °C and less than or equal to 10 °C is marked “B”)
C[C@@H](Cc1cccc(C2(C)CCCC(C)(C)CS(=O)(=O)CCc3c(c(F)cc4[nH]ccc34)Oc3ccc(F)c(c3)-c3nc2nn3C)c1)C(=O)OCCO (single isomer, unassigned) [Compound 140] | B (a value between 12-20 is marked “B”) | C (a value greater than 10 °C and less than or equal to 25 °C is marked “C”)
C[C@@H](Cc1cccc(C2(C)CCCC(C)(C)CS(=O)(=O)CCc3c(c(F)cc4[nH]ccc34)Oc3ccc(F)c(c3)-c3nc2nn3C)c1)C(=O)OCC(O)CO (single isomer, unassigned) [Compound 141] | B (a value between 12-20 is marked “B”) | C (a value greater than 10 °C and less than or equal to 25 °C is marked “C”)
C[C@@H](Cc1cccc(C2(C)CCCC(C)(C)CS(=O)(=O)CCc3c(c(F)cc4[nH]ccc34)Oc3ccc(F)c(c3)-c3nc2nn3C)c1)C(=O)OCCN1CCOCC1 (single isomer, unassigned) [Compound 142] | B (a value between 12-20 is marked “B”) | B (a value above 5 °C and less than or equal to 10 °C is marked “B”)
C[C@@H](Cc1cccc(C2(C)CCCC(C)(C)CS(=O)(=O)CCc3c(c(F)cc4[nH]ccc34)Oc3ccc(F)c(c3)-c3nc2nn3C)c1)C(=O)OCCN1CCN(C)CC1 (single isomer, unassigned) [Compound 143] | B (a value between 12-20 is marked “B”) | B (a value above 5 °C and less than or equal to 10 °C is marked “B”)
C[C@@H](Cc1cccc(C2(C)CCCC(C)(C)CS(=O)(=O)CCc3c(c(F)cc4[nH]ccc34)Oc3ccc(F)c(c3)-c3nc2nn3C)c1)C(=O)OCc1coc(=O)o1 (single isomer, unassigned) [Compound 144] | B (a value between 12-20 is marked “B”) | C (a value greater than 10 °C and less than or equal to 25 °C is marked “C”)
C[C@@H](Cc1cccc(C2(C)CCCC(C)(C)CS(=O)(=O)CCc3c(c(F)cc4[nH]ccc34)Oc3ccc(F)c(c3)-c3nc2nn3C)c1)C(=O)OCOC(=O)C(C)(C)C (single isomer, unassigned) [Compound 145] | C (a value between 20 and 80 is marked “C”) | A (an ΔTagg value less than or equal to 5 °C is marked “A”)
C[C@@H](Cc1cccc(C2(C)CCCC(C)(C)CS(=O)(=O)CCc3c(c(F)cc4[nH]ccc34)Oc3ccc(F)c(c3)-c3nc2nn3C)c1)C(=O)NS(C)(=O)=O (single isomer, unassigned) [Compound 146] | A (a TECC value less than 12 is marked “A”) | C (a value greater than 10 °C and less than or equal to 25 °C is marked “C”)
CONC(=O)[C@@H](C)Cc1cccc(C2(C)CCCC(C)(C)CS(=O)(=O)CCc3c(c(F)cc4[nH]ccc34)Oc3ccc(F)c(c3)-c3nc2nn3C)c1 (single isomer, unassigned) [Compound 147] | A (a TECC value less than 12 is marked “A”) | C (a value greater than 10 °C and less than or equal to 25 °C is marked “C”)
C[C@@H](Cc1cccc(C2(C)CCCC(C)(C)CS(=O)(=O)CCc3c(c(F)cc4[nH]ccc34)Oc3ccc(F)c(c3)-c3nc2nn3C)c1)C(=O)NOCC(O)CO (single isomer, unassigned) [Compound 148] | C (a value between 20 and 80 is marked “C”) | C (a value greater than 10 °C and less than or equal to 25 °C is marked “C”)
CNC(=O)[C@@H](C)Cc1cccc(C2(C)CCCC(C)(C)CS(=O)(=O)CCc3c(c(F)cc4[nH]ccc34)Oc3ccc(F)c(c3)-c3nc2nn3C)c1 (single isomer, unassigned) [Compound 149] | A (a TECC value less than 12 is marked “A”) | C (a value greater than 10 °C and less than or equal to 25 °C is marked “C”)
C[C@@H](Cc1cccc(C2(C)CCCC(C)(C)CS(=O)(=O)CCc3c(c(F)cc4[nH]ccc34)Oc3ccc(F)c(c3)-c3nc2nn3C)c1)C(=O)NS(=O)(=O)C1CC1 (single isomer, unassigned) [Compound 150] | A (a TECC value less than 12 is marked “A”) | C (a value greater than 10 °C and less than or equal to 25 °C is marked “C”)
